Test results as given in patent publication US20080293689A1, “Compounds with Atypical Antipsychotic Activity” (SIGMA-TAU INDUSTRIE FARMACEUTICHE RIUNITE S.P.A., priority 2004, published 2008).
“And” between values parts separate entries of the source, which are not always exact repeats. Equal values may be shown once.

Tests used:
avoidance response = assay: Active avoidance test; assay type: in vivo; conditions: Rattus norvegicus; male Fischer 344 rats; oral, 60 minutes prior to the test; read-out: Inhibition of avoidance response (ED50)
Excerpt: Effect of Treatment in Active Avoidance Test.
The administration of incremental doses of an antipsychotic drug in the rat causes inhibition of the active avoidance response and an increase in the number of escape responses without any increase in failures. This change in the animal's avoidance behaviour is characteristic of the effect of the administration of a compound endowed with anti-psychotic activity. Therefore, the evaluation of such behaviour enables us to detect and determine the antipsychotic capacity of a product.
Male Fischer 344 rats weighing 180 g (Charles River) were used.
To carry out the test to assess the avoidance behaviour of the rats a piece of equipment was used (Ugo Basile) consisting of a plastic cage divided into two compartments by a partition wall with an aperture in it allowing communication between the two sectors. Each of the two sectors can be illuminated by a 10 Watt lamp placed above a plexiglas lid covering the cage. A programming device allows the regulation of the duration and frequency of the unconditioned and discriminatory stimuli and a computerised system acquires the experimental data. […]
Before treatment with the study compounds, the animals were selected in relation to their ability to master the task. […] The results were expressed as means and standard errors.

catalepsy [1] = assay: in vivo; conditions: male, Wistar, rat, po, Induction of catalepsy (ED50)
Description: Effect of Treatment in Catalepsy Test.
(§1) The test was carried out on male rats of the Wistar strain (n=7 animals); evaluation of catalepsy was done by means of a metal rod measuring 0.6 cm in diameter positioned at a distance of 10 cm from the work surface. […] Subsequent observations were recorded at 60, 90, 120, 180, 240, and 300 minutes after administration.

D1 receptor = D1 receptor (Rattus norvegicus, UniProt P18901)
Chain of D1 receptor (P18901 whole entry): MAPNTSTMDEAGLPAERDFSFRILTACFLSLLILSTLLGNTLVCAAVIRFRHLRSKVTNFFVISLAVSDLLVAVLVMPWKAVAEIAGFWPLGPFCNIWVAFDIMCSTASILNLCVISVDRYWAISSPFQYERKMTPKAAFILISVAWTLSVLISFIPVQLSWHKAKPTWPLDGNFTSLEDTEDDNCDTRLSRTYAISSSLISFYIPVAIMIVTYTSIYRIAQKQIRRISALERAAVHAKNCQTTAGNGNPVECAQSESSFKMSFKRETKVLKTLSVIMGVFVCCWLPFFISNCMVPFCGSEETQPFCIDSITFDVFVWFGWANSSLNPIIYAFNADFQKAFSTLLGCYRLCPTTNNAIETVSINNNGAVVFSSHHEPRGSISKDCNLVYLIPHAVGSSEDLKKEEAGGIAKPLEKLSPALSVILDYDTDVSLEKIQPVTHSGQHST
Description: (§2) For the D2 receptor ^3H-Spiperone (0.2 nM) was used and the non-specific binding was determined in the presence of 100 μM of (−)sulpiride. As regards the D3 receptor, the radioligand selected 3H-7-OH-DPAT was used at the concentration of 0.2 μM and the non-specific binding was obtained in the presence of dopamine 10 μM. Lastly, interaction with 5HT2a was evaluated using ^3H-ketanserin (0.7 μM) and the non-specific binding was determined in the presence of methysergide 1 μM.

catalepsy [2] = conditions: rat, in vivo, po, 100 mg/kg
Description: Effect of Treatment in Catalepsy Test.
as §1

[3] = molecular target: T1, cloned dopamine receptor subtype 3 (Rattus norvegicus, UniProt P19020); assay: Radioligand binding to D3 receptor (transfected Sf9 cell membranes, 3H-7-OH-DPAT)
T1 construct: purchased Signal Screen; host or cells: Sf9 cells
T1 sequence (P19020 whole entry): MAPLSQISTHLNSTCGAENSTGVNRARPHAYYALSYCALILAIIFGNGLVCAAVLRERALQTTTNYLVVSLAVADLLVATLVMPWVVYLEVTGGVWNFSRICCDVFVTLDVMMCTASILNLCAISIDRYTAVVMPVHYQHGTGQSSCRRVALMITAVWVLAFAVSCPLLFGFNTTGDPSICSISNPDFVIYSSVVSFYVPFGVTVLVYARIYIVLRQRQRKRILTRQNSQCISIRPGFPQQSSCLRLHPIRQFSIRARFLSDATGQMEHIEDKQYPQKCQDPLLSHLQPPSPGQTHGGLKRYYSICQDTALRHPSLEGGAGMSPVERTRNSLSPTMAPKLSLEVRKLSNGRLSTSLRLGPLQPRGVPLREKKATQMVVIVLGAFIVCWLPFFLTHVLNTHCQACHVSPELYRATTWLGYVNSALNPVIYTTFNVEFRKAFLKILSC
Description: as §2

5HT2a receptor = molecular target: T2, 5HT2a receptor (Rattus norvegicus, UniProt P14842); assay: Radioligand binding to 5HT2a receptor (prefrontal cortex, 3H-ketanserin)
T2 construct: using different cerebral areas (striate D1 and D2; prefrontal cortex 5HT2a); from tissue; host or cells: prefrontal cortex
T2 sequence (P14842 whole entry): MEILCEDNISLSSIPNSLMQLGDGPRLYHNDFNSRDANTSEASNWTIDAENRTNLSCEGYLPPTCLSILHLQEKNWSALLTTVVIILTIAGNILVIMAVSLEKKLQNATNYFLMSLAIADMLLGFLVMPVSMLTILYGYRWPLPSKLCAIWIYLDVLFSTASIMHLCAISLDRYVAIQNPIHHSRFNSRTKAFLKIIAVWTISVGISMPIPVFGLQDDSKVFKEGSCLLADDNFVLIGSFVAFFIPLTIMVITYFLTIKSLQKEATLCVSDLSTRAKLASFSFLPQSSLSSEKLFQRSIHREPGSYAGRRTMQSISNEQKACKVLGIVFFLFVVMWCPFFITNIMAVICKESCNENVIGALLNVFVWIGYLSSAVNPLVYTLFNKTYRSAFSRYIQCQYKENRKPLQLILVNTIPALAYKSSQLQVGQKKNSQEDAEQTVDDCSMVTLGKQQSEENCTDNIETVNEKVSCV
Description: as §2

SMILES: CN1CCN(C2=Nc3cc(Cl)ccc3Nc3ccccc32)CC1 [Clozapine, reference compound]
- ED50 (avoidance response): 4.9 mg/kg and 15 µmol/kg
- ED50 (catalepsy [1]): 100 mg/kg and 276 µmol/kg

SMILES: CN1CCN(C2=Cc3ccccc3Cn3cccc32)CC1 [ST2329, 11-(4-Methylpiperazin-1-yl)-5H-pyrrolo[2,1-b][2]benzazepine]
- D1 pKi (D1 receptor): 6.90
- Ki (D1 receptor; read-out: D1 (Ki: nM), striate, [3H]-SCH 23390): 125 nM
- Presence of catalepsy (catalepsy [2]): no presence of catalepsy was detected
- ED50 (avoidance response): 0.56 mg/kg and 2 µmol/kg
- Ki [3]: 224 nM
- 5HT2A pKi (5HT2a receptor): 8.14
- Log Y (5HT2a receptor; from relative affinity for 5HT2, D2 and D1, classic >6.48, atypical <6.48): 3.20
- Ki (5HT2a receptor; prefrontal cortex, 3H-ketanserin): 7.2 nM
